What was measured:
[1] = biological target: Adenosylhomocysteinase (Homo sapiens) (UniProt P23526); assay: Compound was evaluated for inhibition of human placental AdoHcy hydrolase at a concentration of 100 uM
[2] = biological target: Adenosylhomocysteinase (Homo sapiens) (UniProt P23526); assay: Compound was evaluated for inhibition of human placental AdoHcy hydrolase at a concentration of 50 uM
[3] = biological target: Adenosylhomocysteinase (Homo sapiens) (UniProt P23526); assay: Compound was evaluated for inhibition of human placental AdoHcy hydrolase at a concentration of 10 uM
[4] = biological target: Adenosylhomocysteinase (Homo sapiens) (UniProt P23526); assay: Compound was evaluated for inhibition of human placental AdoHcy hydrolase at a concentration of 0.1 uM
[5] = biological target: Adenosylhomocysteinase (Homo sapiens) (UniProt P23526); assay: Compound was evaluated for inhibition of human placental AdoHcy hydrolase at a concentration of 1.0 uM

Sequence of Adenosylhomocysteinase (Homo sapiens) (P23526 2-432 limits assumed): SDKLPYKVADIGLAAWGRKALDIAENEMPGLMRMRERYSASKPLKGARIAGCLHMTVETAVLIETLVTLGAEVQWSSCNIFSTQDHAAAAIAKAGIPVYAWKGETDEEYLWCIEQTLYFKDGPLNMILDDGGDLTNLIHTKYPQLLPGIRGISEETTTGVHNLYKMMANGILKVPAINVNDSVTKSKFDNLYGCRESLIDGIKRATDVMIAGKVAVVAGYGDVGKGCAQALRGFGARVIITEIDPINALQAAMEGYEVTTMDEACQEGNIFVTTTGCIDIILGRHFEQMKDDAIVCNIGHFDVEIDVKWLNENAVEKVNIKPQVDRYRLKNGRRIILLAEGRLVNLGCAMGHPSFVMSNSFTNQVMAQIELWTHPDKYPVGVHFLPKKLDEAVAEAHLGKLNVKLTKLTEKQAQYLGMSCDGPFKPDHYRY

With `C#CC[C@H]1OC(n2cnc3c(N)ncnc32)[C@H](O)[C@@H]1O` (stereo not given in full) the Enzyme activity [1] was 8%, the Enzyme activity [2] was 14.3% and the Enzyme activity [3] was 38.9%. The Enzyme activity [4] was 98.3% and the Enzyme activity [5] was 73.4%.
In the case of `Nc1ncnc2c1ncn2C1O[C@H](CC=C(Br)Br)[C@@H](O)[C@H]1O` (stereo not given in full), the Enzyme activity [1] is reported as 4%, the Enzyme activity [2] is reported as 5% and the Enzyme activity [3] is reported as 17.1%. The Enzyme activity [4] was 87.5% and the Enzyme activity [5] was 48.5%.
`Nc1ncnc2c1ncn2C1O[C@H](C/C=C(/F)Br)[C@@H](O)[C@H]1O` (stereo not given in full) gave an Enzyme activity [1] of 5.8%, an Enzyme activity [2] of 9.7% and an Enzyme activity [3] of 37.4%. For the same compound, the Enzyme activity [4] was 90.6% and the Enzyme activity [5] was 87.4%.

From ChEMBL document CHEMBL1132983, “Doubly homologated dihalovinyl and acetylene analogues of adenosine: synthesis, interaction with S-adenosyl-L-homocysteine hydrolase, and antiviral and cytostatic effects” (J Med Chem, 2000)
